One assay deals with TRPC7 (Homo sapiens, UniProt Q9HCX4). Nature of the assay: Fluorescence cell-based assay, TRPC7. The conditions noted are these: membrane potential dye, spread in log units, duplicate. As for the experimental part:
(§1) The assays were performed at SB Discovery (Glasgow, UK) on a fee-for-service basis. Human TRP cells were trypsinised, counted and seeded in black, clear-bottomed 96 well plates at a density of 50,000 cells per well in 100 μL volume and incubated overnight. Next day, the cells were loaded with calcium 5 dye or membrane potential dye. TRPV1-5, TRPA1, TRPM2, TRPM3, and TRPM8 were tested using the calcium 5 dye. TRPC1, TRPC3-7, and TRPM4-5 were tested using the membrane potential dye. Both dye solutions were made up in HEPES buffered Hank's balanced salt solution (HBSS). Dye solution (90 μL) was added to the wells and incubated at 37° C. for 1 hour. Test compounds and standard inhibitors (10 μL) were then added to the wells and incubated at room temperature for 10 minutes. The plates were then placed in the flexstation and fluorescence monitored every 1.52 seconds. After 20 seconds agonist was added and the fluorescence monitored for 2 minutes at 485 nm/525 nm and 530 nm/565 nm, Ex/Em, for the calcium 5 dye and the membrane potential dye respectively. Controls-TRPV1: capsazepine; TRPV2: tranilast; TRPV3: ruthenium red; TRPV4: ruthenium red; TRPV5: Gd^3+; TRPA1, ruthenium red; TRPC1: Gd^3+; TRPC3: Pyr3; TRPC4: ML 204; TRPC5: ML 204; TRPC6: ML 204; TRPC7: SKF 96365; TRPM2: 2-APB; TRPM3: Mef acid; TRPM4: clotrimazole; TRPM5: TPPO; TRPM8: 2-APB. […]

Assay [1] addresses T1, TRPV2 (Homo sapiens, UniProt Q9Y5S1).
T1 sequence (Q9Y5S1 1-764): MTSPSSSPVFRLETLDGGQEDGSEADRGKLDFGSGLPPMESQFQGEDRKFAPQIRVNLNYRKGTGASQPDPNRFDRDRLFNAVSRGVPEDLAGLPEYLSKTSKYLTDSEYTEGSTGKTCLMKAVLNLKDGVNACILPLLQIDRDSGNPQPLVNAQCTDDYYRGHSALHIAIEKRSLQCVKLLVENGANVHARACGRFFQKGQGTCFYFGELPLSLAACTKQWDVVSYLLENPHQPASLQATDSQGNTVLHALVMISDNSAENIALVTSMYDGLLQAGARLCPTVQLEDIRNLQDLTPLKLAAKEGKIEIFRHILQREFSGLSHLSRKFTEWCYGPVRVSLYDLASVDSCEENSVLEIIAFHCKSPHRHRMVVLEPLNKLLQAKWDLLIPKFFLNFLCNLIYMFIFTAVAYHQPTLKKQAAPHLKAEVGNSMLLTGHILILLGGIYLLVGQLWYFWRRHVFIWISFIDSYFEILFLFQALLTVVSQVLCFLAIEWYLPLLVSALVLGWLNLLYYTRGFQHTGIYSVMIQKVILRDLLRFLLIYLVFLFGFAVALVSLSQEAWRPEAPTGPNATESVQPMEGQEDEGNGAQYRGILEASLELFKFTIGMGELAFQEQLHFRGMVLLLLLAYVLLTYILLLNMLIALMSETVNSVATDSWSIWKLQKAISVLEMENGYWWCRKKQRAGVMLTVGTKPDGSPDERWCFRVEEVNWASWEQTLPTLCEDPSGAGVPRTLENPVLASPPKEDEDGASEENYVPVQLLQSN
Nature of the assay: Manual patch-clamp assay, hTRPV2 stable HEK-293 cells. The class given is cell-based. The conditions noted are these: n=3. How it is done: The assays were performed at SB Discovery (Glasgow, UK) on a fee-for-service basis. Concentration-response curves and washout assays were performed using a manual patch clamp method. HEK-293 cells were grown and prepared, according to the adapted procedure for hTRPV2 stable cell lines at SB Discovery. Cells were serum starved for approximately 24 hours and then changed to serum-containing media prior to electrophysiology testing. The manual patch-clamp assay was carried out at room temperature using a traditional electrophysiological unit. Cells were used within 2-3 hours after addition of serum containing media to the cells. The standard extracellular solution contained 145 mM NaCl, 4 mM KCl, 2 mM CaCl2, 1 mM MgCl2, 10 mM HEPES and 10 mM glucose. The pH was adjusted to 7.4 with NaOH, and the osmolarity was measured as 311 mOsm/L. The standard intracellular solution contained 50 mM KCl, 10 mM NaCl, 60 mM KF, 2 mM MgCl2, 20 mM EGTA and 10 mM HEPES. The pH was adjusted to 7.2 with KOH and the osmolarity was measured as 286 mOsm/L. A standard ramp protocol was used to monitor currents upon addition of control (extracellular solution) and compound solutions. The voltage protocol consisted of a series of voltage ramps from −100 mV to +100 mV, every 5 seconds, from a holding potential of −60 mV. The maximum outward current values during the recordings at +100 mV were used for analysis. Manual patch clamp experiments were carried out using an Axon 200B amplifier and a Digidata 1440A acquisition system from Axon Instruments (Molecular Devices, USA). The software program pClamp (version 10) from Axon Instruments was used to stimulate and record electrical activity. Capacitative transients were compensated electronically from the recordings, however the voltage drop across the series resistance and the liquid junction potential were not compensated. The series resistance was generally less than 10 MΩ, with a mean cell capacity of approximately 25 pF. The GraphPad Prism (version 5) software was used to analyze and plot all graphs. The agonist (cannabidiol; Abcam #ab120448) was prepared as 100 mM stock in 100% DMSO and diluted to 4 μM or 10 μM in physiological solution prior to testing. Piperlongumine was prepared as 100 mM stock in 100% DMSO and diluted to the specified concentrations in physiological solution (100, 50, 10, 1 and 0.1 μM), also containing 4 μM or 10 μM cannabidiol. Ruthenium red (Sigma, #R2751) was prepared daily as 10 mM stock ion distilled water and diluted to 100 μM in physiological solution.

Another assay addresses TRPA1 (Homo sapiens, UniProt O75762). Nature of the assay: Fluorescence cell-based assay, TRPA1. Conditions: calcium 5 dye, spread in log units, duplicate. How it is done: as §1
Assay [2] has as its target T1, TRPV2. Nature of the assay: Fluorescence cell-based assay, TRPV2 (cannabidiol-evoked calcium influx). Conditions: spread in log units; n=2; read-out: IC50 against TRPV2, fluorescence-based assay (FIG. 2a). As for the experimental part:
The assays were performed at SB Discovery (Glasgow, UK) on a fee-for-service basis. Human TRP cells were trypsinised, counted and seeded in black, clear-bottomed 96 well plates at a density of 50,000 cells per well in 100 μL volume and incubated overnight. Next day, the cells were loaded with calcium 5 dye or membrane potential dye. TRPV1-5, TRPA1, TRPM2, TRPM3, and TRPM8 were tested using the calcium 5 dye. TRPC1, TRPC3-7, and TRPM4-5 were tested using the membrane potential dye. Both dye solutions were made up in HEPES buffered Hank's balanced salt solution (HBSS). Dye solution (90 μL) was added to the wells and incubated at 37° C. for 1 hour. Test compounds and standard inhibitors (10 μL) were then added to the wells and incubated at room temperature for 10 minutes. The plates were then placed in the flexstation and fluorescence monitored every 1.52 seconds. After 20 seconds agonist was added and the fluorescence monitored for 2 minutes at 485 nm/525 nm and 530 nm/565 nm, Ex/Em, for the calcium 5 dye and the membrane potential dye respectively. Controls-TRPV1: capsazepine; TRPV2: tranilast; TRPV3: ruthenium red; TRPV4: ruthenium red; TRPV5: Gd^3+; TRPA1, ruthenium red; TRPC1: Gd^3+; TRPC3: Pyr3; TRPC4: ML 204; TRPC5: ML 204; TRPC6: ML 204; TRPC7: SKF 96365; TRPM2: 2-APB; TRPM3: Mef acid; TRPM4: clotrimazole; TRPM5: TPPO; TRPM8: 2-APB. Control data was in all cases within historical range.

TRPA1, sequence (O75762 whole entry): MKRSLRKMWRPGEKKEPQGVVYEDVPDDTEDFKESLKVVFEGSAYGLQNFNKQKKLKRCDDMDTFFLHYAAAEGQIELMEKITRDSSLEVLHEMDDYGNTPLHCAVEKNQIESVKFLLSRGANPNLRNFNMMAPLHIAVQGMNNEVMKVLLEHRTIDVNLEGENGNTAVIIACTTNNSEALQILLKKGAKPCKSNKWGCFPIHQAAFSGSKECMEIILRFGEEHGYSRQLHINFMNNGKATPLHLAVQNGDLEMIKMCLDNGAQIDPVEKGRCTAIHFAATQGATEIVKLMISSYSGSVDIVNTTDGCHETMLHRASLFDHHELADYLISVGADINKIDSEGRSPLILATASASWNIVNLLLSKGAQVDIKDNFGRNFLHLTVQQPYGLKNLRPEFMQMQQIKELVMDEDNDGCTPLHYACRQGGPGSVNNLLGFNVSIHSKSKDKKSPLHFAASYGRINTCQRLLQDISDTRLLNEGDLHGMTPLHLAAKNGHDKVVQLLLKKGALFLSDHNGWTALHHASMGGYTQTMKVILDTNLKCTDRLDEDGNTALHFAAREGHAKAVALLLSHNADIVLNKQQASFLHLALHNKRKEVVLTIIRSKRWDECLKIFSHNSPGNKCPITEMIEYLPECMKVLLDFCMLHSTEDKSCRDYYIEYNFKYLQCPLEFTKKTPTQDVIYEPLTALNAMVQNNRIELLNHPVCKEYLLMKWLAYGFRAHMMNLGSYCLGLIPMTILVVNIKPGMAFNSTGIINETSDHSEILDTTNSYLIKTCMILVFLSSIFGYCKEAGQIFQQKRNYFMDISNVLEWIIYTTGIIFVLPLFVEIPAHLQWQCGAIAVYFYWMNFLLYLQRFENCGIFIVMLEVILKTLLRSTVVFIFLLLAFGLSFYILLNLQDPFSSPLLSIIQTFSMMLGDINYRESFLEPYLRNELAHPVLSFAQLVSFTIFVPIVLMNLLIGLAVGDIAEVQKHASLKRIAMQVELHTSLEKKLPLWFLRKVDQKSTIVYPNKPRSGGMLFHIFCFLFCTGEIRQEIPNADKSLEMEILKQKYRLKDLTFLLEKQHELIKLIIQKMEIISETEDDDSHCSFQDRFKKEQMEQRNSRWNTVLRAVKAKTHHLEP
TRPC7, sequence (Q9HCX4 whole entry): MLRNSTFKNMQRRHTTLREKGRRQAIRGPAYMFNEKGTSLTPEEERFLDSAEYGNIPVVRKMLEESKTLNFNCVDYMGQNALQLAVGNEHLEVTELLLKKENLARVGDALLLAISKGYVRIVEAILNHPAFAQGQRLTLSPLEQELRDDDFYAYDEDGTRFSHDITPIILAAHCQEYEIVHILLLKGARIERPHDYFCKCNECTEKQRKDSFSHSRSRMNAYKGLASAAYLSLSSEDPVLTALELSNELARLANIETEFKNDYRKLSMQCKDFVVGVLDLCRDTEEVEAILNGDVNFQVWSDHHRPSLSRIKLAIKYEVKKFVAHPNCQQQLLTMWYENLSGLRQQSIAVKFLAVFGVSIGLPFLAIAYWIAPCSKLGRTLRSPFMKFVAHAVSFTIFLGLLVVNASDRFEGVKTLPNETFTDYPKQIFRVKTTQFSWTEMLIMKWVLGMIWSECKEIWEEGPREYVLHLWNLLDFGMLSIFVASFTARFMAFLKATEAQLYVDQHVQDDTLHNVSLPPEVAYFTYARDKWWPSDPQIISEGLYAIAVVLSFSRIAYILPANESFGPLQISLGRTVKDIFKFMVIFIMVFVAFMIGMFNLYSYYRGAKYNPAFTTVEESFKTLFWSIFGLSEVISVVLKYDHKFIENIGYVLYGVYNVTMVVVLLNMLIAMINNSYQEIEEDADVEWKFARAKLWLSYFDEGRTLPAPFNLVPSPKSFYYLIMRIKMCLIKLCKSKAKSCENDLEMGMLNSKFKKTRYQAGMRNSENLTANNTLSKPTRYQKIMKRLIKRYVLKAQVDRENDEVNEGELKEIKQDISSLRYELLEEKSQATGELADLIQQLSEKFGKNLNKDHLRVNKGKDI

As to `COc1ccc(CCCOC(Cn2ccnc2)c2ccc(OC)cc2)cc1` (centres unmarked) [SKF 96365, reference compound], the midpoint of inhibition at TRPC7, the IC50, lay at 103 µM.
Turning to `C=C(C)[C@@H]1CCC(C)=C[C@H]1c1c(O)cc(CCCCC)cc1O` [cannabidiol, reference compound], the “nHill (cannabidiol), TRPV2” value on TRPV2 [1] is 0.6. Also, the EC50 at TRPV2 [1] (read-out: EC50 (cannabidiol), TRPV2) is 3.8 µM.
Take `Cl.Cl.Cl.Cl.Cl.Cl.N.N.N.N.N.N.N.N.N.N.N.N.N.N.[O-2].[O-2].[Ru+3].[Ru+3].[Ru+4]` [ruthenium red, reference compound]: the IC50 at TRPA1 stood at 2.3 µM.
For `COc1ccc(/C=C/C(=O)Nc2ccccc2C(=O)O)cc1OC` [tranilast, reference compound], the IC50 at TRPV2 [2] amounted to 2.3 ± 0.25 µM.

The IC50 is the concentration needed to halve the response being measured. The term EC50 denotes the midpoint of the concentration-response curve.

These data come from patent US11273152B2, “TRPV2 antagonists” (Instituto de Medicina Molecular João Lobo Antunes, priority 2017, dated 2022).
